# Reference: patent publication US5247084A, “Derivatives of p-guanidinobenzoic acid” (priority 1985, dated 1993)
# Target: T1, elastase from human neutrophil (Homo sapiens, UniProt P08246)
# T1 construct: using elastase from human neutrophil; from tissue; host or cells: human neutrophil
# T1 sequence (P08246 30-247 limits assumed): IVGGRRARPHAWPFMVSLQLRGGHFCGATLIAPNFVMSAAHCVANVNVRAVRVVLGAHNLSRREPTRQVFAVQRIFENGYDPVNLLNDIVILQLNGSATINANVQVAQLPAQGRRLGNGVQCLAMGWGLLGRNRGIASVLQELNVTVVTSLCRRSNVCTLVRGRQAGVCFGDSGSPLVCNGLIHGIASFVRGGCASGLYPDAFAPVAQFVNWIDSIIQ
# Assay: Inhibitory effect on elastase (spectrophotometric method, substrate Suc-Ala-Pro-Ala-pNA)
# Assay type: biochemical
# Conditions: not given
row,SMILES,IC50
1,CN(C)C(=O)Oc1cc(Cl)cc(OC(=O)c2ccc(NC(=N)N)cc2)c1 [Example 87],0.76 µM
2,CCNC(=O)Oc1cc(Cl)cc(OC(=O)c2ccc(NC(=N)N)cc2)c1 [Example 88],1.1 µM

# Same assay, conditions: Y represents an oxygen atom; pH 8.0, 37° C., 30 minutes; read-out: Inhibitory Effect on Elastase, IC50
row,IC50,SMILES
1,0.93 µM,N=C(N)Nc1ccc(C(=O)Oc2cc(Cl)cc(C(=O)Nc3cccnc3)c2)cc1 [Example 86]
2,65 µM,N=C(N)Nc1ccc(C(=O)Oc2cccc(S(N)(=O)=O)c2)cc1 [Example 89]
3,140 µM,CN(C)S(=O)(=O)c1ccc(OC(=O)c2ccc(NC(=N)N)cc2)cc1Cl [Example 90]
4,180 µM,CCN(CC)S(=O)(=O)c1ccccc1OC(=O)c1ccc(NC(=N)N)cc1 [Example 91]
5,35 µM,CCN(CC)S(=O)(=O)c1cccc(OC(=O)c2ccc(NC(=N)N)cc2)c1 [Example 92]
6,58 µM,CCN(CC)S(=O)(=O)c1ccc(OC(=O)c2ccc(NC(=N)N)cc2)cc1 [Example 93]
7,4.8 µM,CCN(CC)S(=O)(=O)c1cc(Cl)cc(OC(=O)c2ccc(NC(=N)N)cc2)c1 [Example 95]
8,61 µM,CCN(CC)S(=O)(=O)c1ccc(OC(=O)c2ccc(NC(=N)N)cc2)c(F)c1 [Example 96]
9,58 µM,CCCN(CCC)S(=O)(=O)c1ccc(OC(=O)c2ccc(NC(=N)N)cc2)cc1 [Example 97]
10,77 µM,N=C(N)Nc1ccc(C(=O)Oc2ccc(S(=O)(=O)N3CCCC3)cc2)cc1 [Example 98]
11,1.3 µM,N=C(N)Nc1ccc(C(=O)Oc2cc(Cl)cc(C(=O)Nc3ccc(S(N)(=O)=O)cc3)c2)cc1 [Example 102]
12,0.95 µM,CN(C)S(=O)(=O)c1ccc(NC(=O)c2cc(Cl)cc(OC(=O)c3ccc(NC(=N)N)cc3)c2)cc1 [Example 103]
13,1.1 µM,CCN(CC)S(=O)(=O)c1ccc(NC(=O)c2cc(Cl)cc(OC(=O)c3ccc(NC(=N)N)cc3)c2)cc1 [Example 104]
14,8.5 µM,CS(=O)(=O)Nc1ccc(Cl)c(OC(=O)c2ccc(NC(=N)N)cc2)c1 [Example 105]
15,15 µM,CCS(=O)(=O)Nc1cc(Cl)cc(OC(=O)c2ccc(NC(=N)N)cc2)c1 [Example 106]
16,11 µM,N=C(N)Nc1ccc(C(=O)Oc2cccc([N+](=O)[O-])c2)cc1 [Example 107]
17,120 µM,N=C(N)Nc1ccc(C(=O)Oc2ccc([N+](=O)[O-])cc2)cc1 [Example 108]
18,160 µM,Cc1cc(O)cc(OC(=O)c2ccc(NC(=N)N)cc2)c1 [Example 109]
19,20 µM,COc1cc(O)cc(OC(=O)c2ccc(NC(=N)N)cc2)c1 [Example 110]
20,88 µM,N=C(N)Nc1ccc(C(=O)Oc2cc(O)cc(C(=O)NCc3ccccc3)c2)cc1 [Example 115]

# Same assay, conditions: at 100 μM; Y represents an oxygen atom
row,inhibition at 100 µM,SMILES
1,38%,CNC(=O)c1cc(OC(=O)c2ccc(NC(=N)N)cc2)cc(OC(=O)c2ccc(NC(=N)N)cc2)c1 [Example 82]
2,28%,CCNC(=O)c1cc(OC(=O)c2ccc(NC(=N)N)cc2)cc(C(=O)NCC)c1 [Example 83]
3,36%,CCCNC(=O)c1cc(OC(=O)c2ccc(NC(=N)N)cc2)cc(C(=O)NCCC)c1 [Example 84]
4,27%,N=C(N)Nc1ccc(C(=O)Oc2cc(OC(=O)c3ccc(NC(=N)N)cc3)cc(C(=O)NCc3ccccc3)c2)cc1 [Example 85]
5,41%,N=C(N)Nc1ccc(C(=O)Oc2cccc(S(=O)(=O)N3CCCCC3)c2)cc1 [Example 99]
6,44.2%,N=C(N)Nc1ccc(C(=O)Oc2cccc(S(=O)(=O)N3CCOCC3)c2)cc1 [Example 100]
7,34.9%,N=C(N)Nc1ccc(C(=O)Oc2ccc(S(=O)(=O)N3CCOCC3)cc2)cc1 [Example 101]
8,87%,N=C(N)Nc1ccc(C(=O)Oc2cccc([N+](=O)[O-])c2)cc1 [Example 107]
9,60.1%,N=C(N)Nc1ccc(C(=O)Oc2ccc([N+](=O)[O-])cc2)cc1 [Example 108]
10,45%,COC(=O)c1cc(O)cc(OC(=O)c2ccc(NC(=N)N)cc2)c1 [Example 111]
11,42%,N=C(N)Nc1ccc(C(=O)Oc2cc(O)cc(OC(=O)c3ccc(NC(=N)N)cc3)c2)cc1 [Example 113]
12,22%,CNC(=O)c1cc(O)cc(OC(=O)c2ccc(NC(=N)N)cc2)c1 [Example 114]
